Experimental data published in US6906033B2, “Protease inhibitor peptides” (SCIOS NOVA, Inc., priority 1995, dated 2005).

Key:
activated factor XII = target: T1, activated factor XII (Homo sapiens, UniProt P00748); details: cited from earlier work
T1 sequence (P00748 373-615 limits assumed): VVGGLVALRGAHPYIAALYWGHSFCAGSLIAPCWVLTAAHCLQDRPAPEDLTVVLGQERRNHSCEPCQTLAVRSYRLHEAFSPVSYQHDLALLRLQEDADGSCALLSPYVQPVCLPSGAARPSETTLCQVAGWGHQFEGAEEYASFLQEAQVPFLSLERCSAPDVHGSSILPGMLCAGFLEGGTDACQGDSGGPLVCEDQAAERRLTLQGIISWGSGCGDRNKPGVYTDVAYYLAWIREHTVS

[1] = CPB; cited from earlier work
elastase = details: cited from earlier work
[2] = Acute porcine cardiopulmonary bypass (CPB) model, postoperative bleeding; assay type: in vivo; details: pigs
Method: A randomized, double-blinded study using an acute porcine cardiopulmonary bypass (CPB) model was used to investigate the effect of KPI185-1 on postoperative bleeding. Sixteen pigs (55-65 kg) underwent 60 minutes of hypothermic (28° C.) open-chest CPB with 30 minutes of cardioplegic cardiac arrest. Pigs were randomized against a control solution of physiological saline (NS; n=8) or KPI-185 (n=8) groups. During aortic cross-clamping, the tricuspid valve was inspected through an atriotomy which was subsequently repaired. Following reversal of heparin with protamine, dilateral thoracostomy tubes were placed and shed blood collected for 3 hours. Shed blood volume and hemoglobin (Hgb) loss were calculated from total chest tube output and residual intrathoracic blood at time of sacrifice.

Substance | inhibition of activated factor XII (activated factor XII) | blood loss following bypass [1] | neutrophil activation [1] | inhibition of elastase (elastase) | Total Hgb loss ([2]; after CPB, p=0.0005 vs. saline) [gm] | Thoracostomy drainage Hgb ([2]; at 30 minutes, p=0.004 vs. control) [gm/dl] | Thoracostomy drainage Hgb ([2]; at 60 minutes, p=0.0002 vs. control) [gm/dl] | Total blood loss ([2]; shed blood collected for 3 hours after CPB plus residual intrathoracic blood, p=0.009 vs. saline) [mL]
aprotinin | does not inhibit activated factor XII | significant reduction in blood loss | does not appear to significantly reduce neutrophil activation | neither native aprotinin nor native KPI significantly inhibits elastase |  |  |  | 
KPI (−4→57; M15A, S17F) DD185: KPI (−4→57) variant with M15A, S17F, found by phage display on kallikrein, expressed in yeast from pDD185 |  |  |  |  | 13.59±4.26 | 4.41±1.45 | 5.26±1.04 | 245.75 ± 66.24
